Experimental data as given in US10435447B2, “Bacteriocidal peptides and uses thereof” (priority 2015, dated 2019).
In brackets after ≈: the same amount, converted by molar mass. Like-named read-outs stand apart in the source and are kept apart here. Residues, ends and D or L forms follow the SMILES beside them.

Key:
[1] = system: Toll-like receptor 3 (TLR3); assay: IL-6 ELISA, TLR3 signaling with poly(I:C) in BEAS-2B cells; format: cell-based, human
Experimental: Innate immune signaling by endogenous Toll-like receptor 3 (TLR3) in BEAS-2B cells in response to double-stranded RNA and various bacteriocidal peptides. IL-6 cytokine produced in response to signal transduction by TLR3 and the double-stranded RNA mimic, poly(I:C), was quantified using ELISA. Where present, the peptides were added to the media of BEAS-2B cells to a final concentration of 2 μM. […] All assays were performed in three independent samples and the mean and one standard error is shown above the bars.

TLR4 = settings: earlier finding; cited from earlier work
[2] = system: Toll-like receptor 3 (TLR3); settings: mouse cells and human cells; earlier finding; cited from earlier work
E. cloacae [3] = system: E. cloacae
K. pneumoniae [4] = system: K. pneumoniae
P. aeruginosa [5] = system: P. aeruginosa
S. marcescens [6] = system: S. marcescens
E. coli [7] = assay: microbe, parasite or virus in culture; settings: Escherichia coli
S. marcescens [8] = assay: microbe, parasite or virus in culture; settings: Serratia marcescens
E. coli [9] = settings: for LVX MIC fold change (↓ decrease) / MEM MIC fold change (↓ decrease): with SMAP-29C* vs alone
K. pneumoniae [10] = assay: microbe, parasite or virus in culture; settings: Klebsiella pneumoniae
E. cloacae [11] = assay: microbe, parasite or virus in culture; settings: Enterobacter cloacae
P. aeruginosa [12] = assay: microbe, parasite or virus in culture; settings: Pseudomonas aeruginosa
[13] = E. cloacae OC 4080, with SMAP-29C* vs alone
[14] = K. pneumoniae OC 4110, with SMAP-29C* vs alone
[15] = P. aeruginosa PA01 oprD, with SMAP-29C* vs alone
[16] = S. marcescens 4104, with SMAP-29C* vs alone
[17] = read-out: MEM + SMAP-29C* (MEM MIC)
[18] = read-out: Kan + SMAP-29C* (Kan MIC)

## CRAMP: SEQ ID NO: 4, mouse ortholog of LL-37, GLLRKGGEKIGEKLKKIGQKIKNFFQKLVPQPEQ (listed as Mus musculus)
[1]
  enhancement of TLR3 signaling / IL-6 production (in words): unable to enhance IL-6 production
TLR4
  suppression of inflammatory response induced by lipopolysaccharide: retained the ability to suppress inflammatory response
[2]
  activation of signaling by TLR3: unable to activate signaling by TLR3

## C[C@H]1COc2c(N3CCN(C)CC3)c(F)cc3c(=O)c(C(=O)O)cn1c23 [LVX, Levofloxacin]
E. cloacae [3]
  LVX + SMAP-29C* (LVX MIC): <0.004 µg/mL
E. cloacae [3]; [13]
  LVX MIC fold change (↓ decrease): ↓>8x fold
K. pneumoniae [4]
  LVX + SMAP-29C* (LVX MIC): 0.5 µg/mL
K. pneumoniae [4]; [14]
  LVX MIC fold change (↓ decrease): 1 fold
P. aeruginosa [5]
  LVX + SMAP-29C* (LVX MIC): <0.125 µg/mL
P. aeruginosa [5]; [15]
  LVX MIC fold change (↓ decrease): ↓>32x fold
S. marcescens [6]
  LVX + SMAP-29C* (LVX MIC): <0.125 µg/mL
S. marcescens [6]; [16]
  LVX MIC fold change (↓ decrease): ↓>32x fold
E. coli [7]; ATCC25922, read-out: LVX (MIC alone)
  MIC: 0.016 µg/mL (≈ 0.0443 µM)
E. coli [7]; read-out: LVX (MIC alone)
  MIC: 8 µg/mL (≈ 22.1 µM)
S. marcescens [8]; read-out: LVX (MIC alone)
  MIC: 4 µg/mL (≈ 11.1 µM)
E. coli [9]; E. coli ATCC 25922
  LVX MIC fold change (↓ decrease): 1 fold
E. coli [9]; E. coli IU-342
  LVX MIC fold change (↓ decrease): ↓4x fold
K. pneumoniae [10]; read-out: LVX (MIC alone)
  MIC: 0.5 µg/mL (≈ 1.38 µM)
E. cloacae [11]; read-out: LVX (MIC alone)
  MIC: 0.032 µg/mL (≈ 0.0886 µM)
P. aeruginosa [12]; read-out: LVX (MIC alone)
  MIC: 4 µg/mL (≈ 11.1 µM)

## C[C@@H](O)[C@H]1C(=O)N2C(C(=O)O)=C(S[C@@H]3CN[C@H](C(=O)N(C)C)C3)[C@H](C)[C@H]12 [MEM, Meropenem]
E. cloacae [3]; [13]
  MEM MIC fold change (↓ decrease): ↓4x fold
K. pneumoniae [4]; [14]
  MEM MIC fold change (↓ decrease): 1x fold
P. aeruginosa [5]; [15]
  MEM MIC fold change (↓ decrease): ↓2x fold
S. marcescens [6]; [16]
  MEM MIC fold change (↓ decrease): ↓4x fold
E. coli [7]; ATCC25922, read-out: MEM (MIC alone)
  MIC: 0.016 µg/mL (≈ 0.0417 µM)
E. coli [7]; ATCC25922, read-out: MEM + SMAP-29C* (MEM MIC)
  MIC: 0.008 µg/mL
E. coli [7]; read-out: MEM (MIC alone)
  MIC: 0.016 µg/mL (≈ 0.0417 µM)
E. coli [7]; [17]
  MIC: < 0.004 µg/mL
S. marcescens [8]; read-out: MEM (MIC alone)
  MIC: 0.032 µg/mL (≈ 0.0834 µM)
S. marcescens [8]; [17]
  MIC: 0.008 µg/mL
E. coli [9]; E. coli ATCC 25922
  MEM MIC fold change (↓ decrease): ↓2x fold
E. coli [9]; E. coli IU-342
  MEM MIC fold change (↓ decrease): ↓>4x fold
K. pneumoniae [10]; read-out: MEM (MIC alone)
  MIC: 0.052 µg/mL (≈ 0.136 µM)
K. pneumoniae [10]; [17]
  MIC: 0.032 µg/mL
E. cloacae [11]; read-out: MEM (MIC alone)
  MIC: 0.032 µg/mL (≈ 0.0834 µM)
E. cloacae [11]; [17]
  MIC: 0.008 µg/mL
P. aeruginosa [12]; read-out: MEM (MIC alone)
  MIC: 1 µg/mL (≈ 2.61 µM)
P. aeruginosa [12]; [17]
  MIC: 0.5 µg/mL

## NC[C@H]1O[C@H](O[C@H]2[C@H](O)[C@@H](O[C@H]3O[C@H](CO)[C@@H](O)[C@H](N)[C@H]3O)[C@H](N)C[C@@H]2N)[C@H](O)[C@@H](O)[C@@H]1O [Kan, kanamycin]
K. pneumoniae [4]; [14]
  Kan MIC Fold change (↓ decrease): ↓2x fold
S. marcescens [6]; [16]
  Kan MIC Fold change (↓ decrease): ↓2x fold
E. coli [7]; ATCC25922, read-out: Kan (MIC alone)
  MIC: 2 µg/mL (≈ 4.13 µM)
E. coli [7]; read-out: Kan (MIC alone)
  MIC: 16 µg/mL (≈ 33 µM)
E. coli [7]; [18]
  MIC: 8 µg/mL
S. marcescens [8]; read-out: Kan (MIC alone)
  MIC: 4 µg/mL (≈ 8.26 µM)
K. pneumoniae [10]; read-out: Kan (MIC alone)
  MIC: 4 µg/mL (≈ 8.26 µM)
E. cloacae [11]; read-out: Kan (MIC alone)
  MIC: 2 µg/mL (≈ 4.13 µM)
P. aeruginosa [12]; read-out: Kan (MIC alone)
  MIC: 64 µg/mL (≈ 132 µM)
P. aeruginosa [12]; [18]
  MIC: 32 µg/mL

## CC[C@H](C)[C@H](NC(=O)[C@H](CCCCN)NC(=O)[C@H](CCCNC(=N)N)NC(=O)CNC(=O)[C@H](CC(C)C)NC(=O)[C@H](CCCNC(=N)N)NC(=O)[C@H](CCCNC(=N)N)NC(=O)[C@H](CC(C)C)NC(=O)CNC(=O)[C@@H](N)CCCNC(=N)N)C(=O)N[C@@H](C)C(=O)N[C@@H](Cc1c[nH]cn1)C(=O)NCC(=O)N[C@H](C(=O)N[C@@H](CCCCN)C(=O)N[C@@H](CCCCN)C(=O)N[C@@H](CS)C(=O)NCC(=O)N1CCC[C@H]1C(=O)N[C@H](C(=O)N[C@H](C(=O)N[C@@H](CC(C)C)C(=O)N[C@@H](CCCNC(=N)N)C(=O)N[C@H](C(=O)N[C@H](C(=O)N[C@@H](CCCNC(=N)N)C(=O)N[C@H](C(=O)N[C@@H](C)C(=O)NCC(=O)N[C@@H](CS)C(=O)O)[C@@H](C)CC)[C@@H](C)CC)[C@@H](C)CC)C(C)C)[C@@H](C)O)C(C)C [SMAP-29C] (H-RGLRRLGRKIAHGVKKCGPTVLRIIRIAGC-OH; N-terminus and C-terminus assumed)
E. cloacae [3]; E. cloacae OC 4080, with Kan* 1 μg/ml (½ MIC)
  MIC for ShpC + Kan*: 2 µg/mL
E. faecalis
  MIC: 32 µg/mL (≈ 9.7 µM)
K. pneumoniae [4]; K. pneumoniae OC 4110, with Kan* 2 μg/ml (½ MIC)
  MIC for ShpC + Kan*: 2 µg/mL
K. pneumoniae [4]; K. pneumoniae OC 4110, with Kan* vs alone
  SMAP-29C MIC fold change (↓ decrease): ↓4x fold
K. pneumoniae [4]; K. pneumoniae OC 4110, with LVX* vs alone
  SMAP-29C MIC fold change (↓ decrease): 1x fold
K. pneumoniae [4]; K. pneumoniae OC 4110, with MEM* vs alone
  SMAP-29C MIC fold change (↓ decrease): ↓2x fold
P. aeruginosa [5]
  MIC for ShpC + Kan*: 2 µg/mL
S. marcescens [6]; S. marcescens 4104, with Kan* 2 μg/ml (½ MIC)
  MIC for ShpC + Kan*: 2 µg/mL
S. marcescens [6]; S. marcescens 4104, with Kan* vs alone
  SMAP-29C MIC fold change (↓ decrease): ↓>8x fold
S. marcescens [6]; S. marcescens 4104, with LVX* vs alone
  SMAP-29C MIC fold change (↓ decrease): ↓>4x fold
S. marcescens [6]; S. marcescens 4104, with MEM* vs alone
  SMAP-29C MIC fold change (↓ decrease): No change
E. coli [9]; E. coli ATCC25922, with Kan* 1 μg/ml (½ MIC)
  MIC for ShpC + Kan*: <0.25 µg/mL
E. coli [9]; E. coli IU-342, with Kan* 8 μg/ml (½ MIC)
  MIC for ShpC + Kan*: 2 µg/mL
